Source: patent US8039014B2, “3′-alkoxyspirocyclopentyl-substituted tetramic and tetronic acids” (Bayer Cropscience AG, priority 2005, dated 2011)

Tested on: cereal
Experiment: Herbicidal post-emergence action with safener: container trials with cereal outdoors ('bird cage'), mefenpyr 1 day prior to herbicide application
Assay type: in vivo
Settings: without safener
Description: Seeds of monocotyledonous and dicotyledonous weed and crop plants are placed into sandy loam in wood fiber pots or in plastic pots, covered with soil and cultivated in a greenhouse, during the vegetation period also outdoors outside of the greenhouse, under good growth conditions. 2 to 3 weeks after sowing, the test plants are treated at the one- to three-leaf stage. The test compounds, formulated as wettable powders (WP) or liquid (EC), are, in various dosages at a water application rate of 300 l/ha (converted), with wetting agent (0.2 to 0.3%) added, sprayed onto the plants and the surface of the soil. […]
If it is additionally to be tested as to whether safeners can improve the plant compatibility of test substances in the case of crop plants, the following options are used for applying the safener: • seeds of the crop plants are, before sowing, dressed with the safener substance (the amount of safener stated in percent, based on the weight of the seed) • before the application of the test substances, the crop plants are sprayed with the safener at a certain application rate per hectare (usually 1 day before the application of the test substances) • the safener is applied together with the test substance as a tank mix (the amount of safener is stated in g/ha or as a ratio, based on the herbicide). […]

CCc1cc(Cl)cc(OC)c1C1=C(O)C2(CCC(OC)C2)NC1=O (centres unmarked) [Example I-1-a-4]
Summer wheat after 10 d observed (%) (25 g ai/ha): 25%
Summer wheat after 10 d observed (%) (50 g ai/ha): 40%
